{"source": "patent US12534762B2", "about": "“Treating atopic dermatitis by targeting the WNT pathway” (Children's Medical Center Corporation, priority 2018, dated 2026)", "key": {"Xenopus embryos": {"tested_on": "Xenopus embryos", "experiment": "MO specificity, Western blotting of protein synthesis from co-injected mRNA", "assay_type": "in vivo, Xenopus laevis", "conditions": "stage 10", "protocol": "(§1) mRNA and Morpholino injection. For animal cap assays, indicated mRNAs (Tmem79, 100 and 200 pg; Xwnt8, 10 pg; β-catenin 50 pg; Xnr1, 250 pg; BMP4, 100 pg) were injected into the animal pole at 4-cell stage, and animal caps were dissected at stage 9 (in the case of Xwnt8, Xnr1, BMP4) or at stage 8.5 and treated with recombinant proteins (bFGF, 100 ng/ml; hShh, 1.5 ng/mL) until stage 10 before RT-PCR. For Neural induction assay the MO (20 ng) for Tmem79, Usp8 or β-catenin was injected into the animal pole at 4-cell stage, and animal caps were dissected at stage 9 and treated with recombinant protein Noggin (500 ng/mL) until stage 18 before RT-PCR. To examine Tmem79 and Usp8 MOs specificity, […] of mRNA of Xenopus Tmem79, mouse Tmem79, Xenopus Usp8 or xmutUsp8 (Xenopus Usp8 mutated for mismatches with the MO) were injected with a control MO, Tmem79 MO or Usp8 MO (20 ng) into the animal pole at the 2-cell stage and cultured til stage 10 for Western blotting. To knockdown the endogenous xTmem79 or xUsp8, 20 ng of control MO, Tmem79 MO or Usp8 MO were injected into two dorso-animal blastomeres at the 8-cell stage and the phenotype was scored at stage 35. To rescue the Tmem79 MO phenotype, […] of mTmem 79, 20 ng of Usp8 MO or 10 ng of β-catenin MO was injected together with Tmem79 MO (20 ng). RT-PCR primers and Morpholinos. […]"}, "[1]": {"tested_on": "animal pole explants of Xenopus embryos", "experiment": "Neural induction assay by Noggin in animal pole explants (RT-PCR)", "set-up": "species or system Xenopus laevis", "conditions": "co-injected with Tmem79MO", "protocol": "as §1"}}, "data": [{"substance": "Usp8 MO: morpholino against Xenopus Usp8, SEQ ID NO: 26 (antisense GCTGCAAATTCTCCTCTCTTATCAA; all phosphorodiamidate morpholino (PMO); listed as Xenopus laevis)", "values": [{"measurement": "protein synthesis from the Xenopus Usp8 (xUsp8) mRNA", "setting": "Xenopus embryos", "value": "inhibited"}, {"measurement": "neural induction by Noggin abolished by Tmem79MO: effect of co-injection", "setting": "[1]", "value": "rescued"}]}]}
